Measurements: ChEMBL document CHEMBL1142466, “Itk kinase inhibitors: initial efforts to improve the metabolical stability and the cell activity of the benzimidazole lead” (Bioorg Med Chem Lett, 2008)

Assays:
[1] = biological target: T1, Tyrosine-protein kinase Tec (Homo sapiens, UniProt P42680); test: Inhibition of Tec kinase
T1 sequence (P42680 whole entry): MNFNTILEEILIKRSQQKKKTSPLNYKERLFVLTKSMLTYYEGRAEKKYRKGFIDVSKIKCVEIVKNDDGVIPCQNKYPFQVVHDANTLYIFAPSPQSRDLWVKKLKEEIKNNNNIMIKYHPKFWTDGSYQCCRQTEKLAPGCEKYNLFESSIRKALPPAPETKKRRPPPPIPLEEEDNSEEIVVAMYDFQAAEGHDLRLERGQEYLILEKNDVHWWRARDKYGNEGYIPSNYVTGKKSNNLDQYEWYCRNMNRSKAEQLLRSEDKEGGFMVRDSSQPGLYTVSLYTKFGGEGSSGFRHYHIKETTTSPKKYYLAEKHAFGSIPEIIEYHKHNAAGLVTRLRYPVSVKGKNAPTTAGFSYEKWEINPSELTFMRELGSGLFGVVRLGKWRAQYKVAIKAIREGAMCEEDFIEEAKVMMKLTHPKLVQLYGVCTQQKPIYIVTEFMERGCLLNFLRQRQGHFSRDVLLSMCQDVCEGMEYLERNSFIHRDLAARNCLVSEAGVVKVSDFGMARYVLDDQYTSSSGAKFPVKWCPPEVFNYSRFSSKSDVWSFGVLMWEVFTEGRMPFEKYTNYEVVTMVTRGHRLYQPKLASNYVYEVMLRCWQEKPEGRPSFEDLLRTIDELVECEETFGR

Cytochrome P450 3A4 = Cytochrome P450 3A4 (Homo sapiens, UniProt P08684); test: Inhibition of CYP3A4; assay type: ADME
[2] = biological target: Tyrosine-protein kinase Lyn (Homo sapiens, UniProt P07948); test: Inhibition of Lyn
[3] = biological target: T2, Tyrosine-protein kinase TXK (Homo sapiens, UniProt P42681); test: Inhibition of TXK
T2 sequence (P42681 whole entry): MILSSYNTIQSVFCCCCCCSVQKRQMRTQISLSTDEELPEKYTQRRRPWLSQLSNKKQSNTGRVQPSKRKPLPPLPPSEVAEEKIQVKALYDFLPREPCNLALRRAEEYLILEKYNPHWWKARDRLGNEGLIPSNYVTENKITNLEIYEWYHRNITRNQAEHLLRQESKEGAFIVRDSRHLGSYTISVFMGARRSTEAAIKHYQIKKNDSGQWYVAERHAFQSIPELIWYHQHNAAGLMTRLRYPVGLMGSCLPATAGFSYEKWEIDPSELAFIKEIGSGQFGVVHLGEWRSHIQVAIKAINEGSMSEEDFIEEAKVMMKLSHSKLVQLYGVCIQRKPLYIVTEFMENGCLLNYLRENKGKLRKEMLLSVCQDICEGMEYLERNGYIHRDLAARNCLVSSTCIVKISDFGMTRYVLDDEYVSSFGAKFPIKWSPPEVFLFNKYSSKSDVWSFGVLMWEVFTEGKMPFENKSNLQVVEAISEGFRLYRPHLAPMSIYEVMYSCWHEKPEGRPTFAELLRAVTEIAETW

Jurkat = test: Cytotoxicity against human JURKAT cells; assay type: functional; conditions: read-out: TC50 (the source's name)
Cytochrome P450 2C9 = Cytochrome P450 2C9 (Homo sapiens, UniProt P11712); test: Inhibition of CYP2C9; assay type: ADME
Insulin receptor = Insulin receptor (Homo sapiens, UniProt P06213); test: Inhibition of IRK
Mus musculus = test: Inhibition of anti-CD3-induced IL2 production in sc dosed mouse; assay type: functional, organism-based
[4] = biological target: T3, Tyrosine-protein kinase ITK/TSK (Homo sapiens, UniProt Q08881); test: Inhibition of recombinant ITK by DELFIA assay
T3 sequence (Q08881 whole entry): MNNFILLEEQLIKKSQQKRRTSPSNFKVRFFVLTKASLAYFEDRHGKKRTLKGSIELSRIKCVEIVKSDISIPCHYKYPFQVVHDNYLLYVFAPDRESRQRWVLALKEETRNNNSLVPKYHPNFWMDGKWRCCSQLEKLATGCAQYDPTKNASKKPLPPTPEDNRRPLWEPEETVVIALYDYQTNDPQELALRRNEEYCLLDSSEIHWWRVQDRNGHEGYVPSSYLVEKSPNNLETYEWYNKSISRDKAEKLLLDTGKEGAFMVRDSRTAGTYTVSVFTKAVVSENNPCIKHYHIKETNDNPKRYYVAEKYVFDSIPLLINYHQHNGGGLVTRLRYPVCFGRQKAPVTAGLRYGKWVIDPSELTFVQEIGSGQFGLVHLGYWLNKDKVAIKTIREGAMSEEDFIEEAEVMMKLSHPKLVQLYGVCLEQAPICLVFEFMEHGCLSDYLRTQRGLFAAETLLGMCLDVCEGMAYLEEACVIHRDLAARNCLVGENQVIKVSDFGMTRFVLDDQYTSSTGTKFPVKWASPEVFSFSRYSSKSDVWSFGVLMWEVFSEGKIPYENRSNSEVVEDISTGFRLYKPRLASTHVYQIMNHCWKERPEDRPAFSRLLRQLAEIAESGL

Chain of Cytochrome P450 3A4 (P08684 whole entry): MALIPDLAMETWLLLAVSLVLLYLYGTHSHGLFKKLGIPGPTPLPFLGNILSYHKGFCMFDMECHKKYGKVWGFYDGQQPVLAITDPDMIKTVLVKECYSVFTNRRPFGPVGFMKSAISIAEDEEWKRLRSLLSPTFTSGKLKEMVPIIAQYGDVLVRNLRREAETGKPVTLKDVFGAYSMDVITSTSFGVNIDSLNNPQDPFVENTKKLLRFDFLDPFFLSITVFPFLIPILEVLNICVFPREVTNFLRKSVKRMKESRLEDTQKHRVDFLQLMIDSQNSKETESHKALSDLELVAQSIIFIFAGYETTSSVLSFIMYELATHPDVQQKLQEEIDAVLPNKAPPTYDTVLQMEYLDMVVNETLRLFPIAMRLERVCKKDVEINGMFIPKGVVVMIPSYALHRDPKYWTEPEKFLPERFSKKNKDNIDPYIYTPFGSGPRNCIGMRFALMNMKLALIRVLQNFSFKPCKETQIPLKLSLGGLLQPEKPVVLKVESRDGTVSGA
Chain of Insulin receptor (P06213 28-758 limits assumed): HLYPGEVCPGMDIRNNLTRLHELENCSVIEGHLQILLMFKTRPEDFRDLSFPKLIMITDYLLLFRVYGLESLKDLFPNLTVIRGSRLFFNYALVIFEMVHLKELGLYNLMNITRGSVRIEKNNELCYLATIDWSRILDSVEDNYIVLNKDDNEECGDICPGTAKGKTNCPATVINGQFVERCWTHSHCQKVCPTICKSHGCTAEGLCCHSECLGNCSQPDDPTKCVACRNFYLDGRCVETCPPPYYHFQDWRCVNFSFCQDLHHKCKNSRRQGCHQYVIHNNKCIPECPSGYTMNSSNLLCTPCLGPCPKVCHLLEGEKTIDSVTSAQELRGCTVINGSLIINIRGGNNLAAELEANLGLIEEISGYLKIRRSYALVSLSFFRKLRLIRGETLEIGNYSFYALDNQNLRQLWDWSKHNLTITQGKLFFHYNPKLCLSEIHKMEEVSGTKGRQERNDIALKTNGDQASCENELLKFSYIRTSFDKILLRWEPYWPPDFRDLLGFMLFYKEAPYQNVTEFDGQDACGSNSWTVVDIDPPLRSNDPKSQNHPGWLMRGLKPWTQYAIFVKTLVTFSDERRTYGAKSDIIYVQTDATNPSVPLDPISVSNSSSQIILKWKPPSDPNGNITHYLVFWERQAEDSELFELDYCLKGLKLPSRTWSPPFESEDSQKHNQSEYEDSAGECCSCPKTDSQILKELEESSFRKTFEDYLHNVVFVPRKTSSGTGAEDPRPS
Chain of Insulin receptor (P06213 763-1382 limits assumed): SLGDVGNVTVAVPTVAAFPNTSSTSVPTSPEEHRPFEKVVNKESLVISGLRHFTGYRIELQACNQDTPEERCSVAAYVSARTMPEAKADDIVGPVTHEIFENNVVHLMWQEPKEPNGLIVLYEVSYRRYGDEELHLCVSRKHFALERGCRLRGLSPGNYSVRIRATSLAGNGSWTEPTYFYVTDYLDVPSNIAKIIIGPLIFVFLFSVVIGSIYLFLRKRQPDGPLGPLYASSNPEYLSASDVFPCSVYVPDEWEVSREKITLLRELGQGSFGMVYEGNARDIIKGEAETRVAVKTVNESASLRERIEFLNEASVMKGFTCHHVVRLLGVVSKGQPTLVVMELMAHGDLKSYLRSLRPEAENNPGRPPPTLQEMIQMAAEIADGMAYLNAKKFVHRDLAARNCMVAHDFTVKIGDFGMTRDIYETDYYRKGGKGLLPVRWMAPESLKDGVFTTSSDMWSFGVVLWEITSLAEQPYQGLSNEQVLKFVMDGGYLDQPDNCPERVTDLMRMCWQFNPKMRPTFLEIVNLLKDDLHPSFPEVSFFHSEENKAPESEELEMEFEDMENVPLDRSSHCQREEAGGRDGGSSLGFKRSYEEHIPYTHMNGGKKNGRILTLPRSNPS
Chain of Tyrosine-protein kinase Lyn (P07948 whole entry): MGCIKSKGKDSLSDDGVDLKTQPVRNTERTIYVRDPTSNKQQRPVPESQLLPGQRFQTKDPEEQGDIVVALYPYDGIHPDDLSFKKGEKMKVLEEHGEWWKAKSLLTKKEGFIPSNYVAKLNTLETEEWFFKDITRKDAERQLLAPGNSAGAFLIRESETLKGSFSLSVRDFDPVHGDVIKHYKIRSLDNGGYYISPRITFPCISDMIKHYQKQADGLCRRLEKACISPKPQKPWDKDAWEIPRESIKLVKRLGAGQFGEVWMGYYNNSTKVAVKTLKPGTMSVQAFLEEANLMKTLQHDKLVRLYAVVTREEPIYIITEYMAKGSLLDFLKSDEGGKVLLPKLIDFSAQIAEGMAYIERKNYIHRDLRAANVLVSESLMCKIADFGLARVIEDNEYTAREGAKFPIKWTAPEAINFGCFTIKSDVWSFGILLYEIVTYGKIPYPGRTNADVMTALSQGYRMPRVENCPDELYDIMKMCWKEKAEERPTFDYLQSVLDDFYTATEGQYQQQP
Chain of Cytochrome P450 2C9 (P11712 whole entry): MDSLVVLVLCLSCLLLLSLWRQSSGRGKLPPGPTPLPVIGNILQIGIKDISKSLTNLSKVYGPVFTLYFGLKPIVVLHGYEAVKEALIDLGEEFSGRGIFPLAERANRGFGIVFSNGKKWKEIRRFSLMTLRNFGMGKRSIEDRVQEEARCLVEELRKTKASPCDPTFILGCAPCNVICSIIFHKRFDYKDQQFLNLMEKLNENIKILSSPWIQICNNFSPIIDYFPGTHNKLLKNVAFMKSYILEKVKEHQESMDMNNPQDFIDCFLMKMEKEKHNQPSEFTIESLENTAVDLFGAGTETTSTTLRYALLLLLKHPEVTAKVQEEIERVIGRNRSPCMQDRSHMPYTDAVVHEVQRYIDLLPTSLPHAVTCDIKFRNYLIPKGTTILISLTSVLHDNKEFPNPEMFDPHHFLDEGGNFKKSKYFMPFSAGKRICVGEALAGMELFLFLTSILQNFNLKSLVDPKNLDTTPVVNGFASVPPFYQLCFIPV

Row | IC50 [1] [µM] | Activity (Cytochrome P450 3A4) [µM] | IC50 [2] [µM] | IC50 [3] [nM] | Activity (Cytochrome P450 2C9) [µM] | IC50 (Insulin receptor) [µM] | Structure (SMILES) | CC50 (Jurkat) [µM] | other results
1 | > 10 | > 30 | > 10 | 310 | > 30 | > 10 | CCN(C(=O)c1ccccc1)c1ccc2c(c1)nc(NC(=O)c1ccc(C#N)cc1)n2CCC(N)=O | > 10 | –
2 | – | – | – | – | – | – | CC(=O)N1CCN(C(=O)c2cc(CSc3cnc(NC(=O)c4ccc(CNC(C)C(C)(C)C)cc4)s3)cc(C)c2C)CC1 (configuration not stated) | – | Activity (Mus musculus): Dose-dependent effect
3 | > 10 | > 30 | > 10 | 500 | > 30 | – | CN(C(=O)c1ccccc1)c1ccc2c(c1)nc(NC(=O)c1ccc(Cl)cc1)n2CCC(N)=O | 5.8 | –
4 | – | – | – | – | – | > 10 | CN(C(=O)c1ccccc1)c1ccc2c(c1)nc(NC(=O)c1ccno1)n2CCC(N)=O | – | –
5 | – | – | – | – | – | – | CCN(C(=O)c1ccccc1)c1ccc2c(c1)nc(NC(=O)c1ccno1)n2CCC(N)=O | – | IC50 [4]: 27 nM
6 | – | – | – | – | – | > 10 | CN(C(=O)c1ccccc1)c1ccc2c(c1)nc(NC(=O)c1ccc(C#N)nc1)n2CCC(N)=O | – | –
7 | – | – | – | – | – | > 10 | Cc1cc(C(=O)Nc2nc3cc(N(C)C(=O)c4ccccc4)ccc3n2CCC(N)=O)ccc1C#N | – | –
8 | – | – | – | – | – | 0.32 | CN(C(=O)c1ccccc1)c1ccc2c(c1)nc(NC(=O)c1ccoc1)n2CCC(N)=O | – | IC50 [4]: 10 nM
9 | > 10 | > 30 | > 10 | 560 | > 30 | > 10 | CN(C(=O)c1ccccc1)c1ccc2c(c1)nc(NC(=O)c1ccc(C#N)cc1)n2CCC(N)=O | > 10 | –
